Experimental findings from patent US20250034498A1, “MICROFLUIDIC DEVICES” (Ecole Polytechnique Federale de Lausanne, priority 2021, published 2025) are described below.

In the test the test system is neural tube organoids. As to the kind of experiment: dorsal-ventral patterning of neural tube organoids at the gradient window of the microfluidic device. Format: cell-based. The following applies: for identity of neural tube organoid (PAX3/7 dorsal marker, OLIG2 ventral marker): D6 organoids exposed 18 hours; for spatial patterning of neural tube organoid (PAX3/7 dorsal marker, OLIG2 ventral marker): anti-parallel gradient 1.6 nM BMP4 (L)-500 nM SAG (R), 18 hours. As to the method:
In the present example, the organoid of interest was cultured in a Matrigel™ drop for six days then harvested, and the organoid was suspended in Matrigel™ and loaded into the culture chamber 130 and placed at the gradient window 150 via the loading channel 170. A small drop of N2B27 medium was placed in each of the first and second medium chambers or reservoirs 110, 120 for humidification, and the chip was incubated in a 5% CO2 and 37° C. incubator for 5 minutes to allow the Matrigel™ to polymerise. After incubation, the first and second chambers 110, 120 were filled with N2B27 medium supplemented with 1.6 nM of BMP4 as a dorsal morphogen and 500 nM of SAG as a ventral morphogen respectively, and residual air in the device was removed from the first and second air outlets 140-1, 140-2 to allow the morphogen-supplemented media to diffuse across the gradient window 150. The device containing the organoid was incubated in a 5% CO2 and 37° C. incubator for 18 hours.
A neural tube organoid was placed in the gradient window of the device where a dorsal-ventral morphogen gradient has developed, using BMP4 as a dorsal morphogen and SAG as a ventral morphogen. PAX3/7 was used as a marker for dorsal fate neural tube cell and OLIG2 was used as a marker for ventral fate neural tube cell.
As described above, the neural tube organoids from D6 were introduced in the microfluidic device and exposed to different morphogen gradients for 18 hours. All scale bars are 100 μm.

Entries after “also recorded” stand apart in the source; their conditions may differ.

On to `CNC1CCC(N(Cc2cccc(-c3ccncc3)c2)C(=O)c2sc3ccccc3c2Cl)CC1` (stereo not shown) [SAG], for which the “spatial patterning of neural tube organoid (PAX3/7 dorsal marker, OLIG2 ventral marker)” value is listed as “OLIG2 positive cells were biased towards the SAG source; also recorded: OLIG2 biased to right side”. For the same molecule, for the setting “N2B27 (L)-500 nM SAG (R)”, the “identity of neural tube organoid (PAX3/7 dorsal marker, OLIG2 ventral marker)” value is on record as “dominant ventral identity expressing OLIG2”.

B1: Bone Morphogenetic Protein 4 (protein, UniProt P12644 293-408, looked up)
Bone morphogenetic protein 4: SPKHHSQRARKKNKNCRRHSLYVDFSDVGWNDWIVAPPGYQAFYCHGDCPFPLADHLNSTNHAIVQTLVNSVNSSIPKACCVPTELSAISMLYLDEYDKVVLKNYQEMVVEGCGCR
notes: dorsalizing morphogen
Regarding B1, the “spatial patterning of neural tube organoid (PAX3/7 dorsal marker, OLIG2 ventral marker)” value is reported as “PAX3/7 positive cells were biased towards the BMP4 source; also recorded: PAX3/7 biased to the left side”. For the same molecule, the “identity of neural tube organoid (PAX3/7 dorsal marker, OLIG2 ventral marker)” value (1.6 nM BMP4 (L)-N2B27 (R)) was “dorsal identity expressing PAX3/7”.
